Test results from patent US9676997B2, “Compositions and methods for stabilizing luminogenic substrates” (Promega Corporation, priority 2014, dated 2017).

Experiments:
[1] = Stability of 1.25 mM coelenterazine-h in 50% ethanol and 50% propylene glycol with or without 225 mM ATT, HPLC and Arrhenius plots; type: physicochemical; details: 225 mM ATT, over time at different temperatures
Method: The stability of coelenterazine-h in the presence and absence of ATT was measured over time at different temperatures. Specifically, 1.25 mM coelenterazine-h was present in a solution of 50% ethanol and 50% propylene glycol (i.e., the solution without ATT) or a solution of 50% ethanol and 50% propylene glycol with 225 mM ATT (i.e., the solution with ATT). These two solutions were incubated at −20° C., room temperature (RT), 40° C., or 60° C. and analyzed at for 0 days, 1 day, 3 days, 7 days, 15 days, and 30 days.
Following incubation, high performance liquid chromatography (HPLC) was utilized to identify the components of the respective solutions at each time point. Specifically, an Agilent 1100 HPLC instrument was used and equipped with a quaternary pump, thermostatted autosampler and column compartment, and a G1311B diode-array detector. The column used was a Synergi-MAX-RP (Phenomenex, Torrance, Calif.) 100 AÅ 50×4.6 2.5 μm. The run on the HPLC was a gradient run with 0.1% TFA in water and acetonitrile. Absorbance was measured at 262 nanometers (nm). Standards of coelenterazine-h and its known degradants were run to confirm both the retention time and absorbance trace. 5 μl of each solution was injected and the retention time of coelenterazine-h was 4.7 minutes at room temperature.
The results of the HPLC analysis are shown below in Tables 4 and 5 and FIGS. 2A and 2B, in which the values are reported as relative peak area percentage at 262 nm (i.e., the lamba max of the substrate). […] In each of FIGS. 2A and 2B, diamond is 1.25 mM coelenterazine-h incubated over time with or without 225 mM ATT, respectively, at −20° C., triangle is 1.25 mM coelenterazine-h incubated over time with or without 225 mM ATT, respectively, at room temperature (RT), star is 1.25 mM coelenterazine-h incubated over time with or without 225 mM ATT, respectively, at 40° C., and cross is 1.25 mM coelenterazine-h incubated over time with or without 225 mM ATT, respectively, at 60° C.
From the HPLC analysis, the half-life of coelenterazine-h in the presence of ATT at 40° C. and 60° C. was calculated to be 20 days and 5 days, respectively, while the half-life of coelenterazine-h in the absence of ATT at 20° C., 40° C. and 60° C. was calculated to be 24 days, 7.5 days and 2 days, respectively (see Table 6 below).
Additionally, Arrhenius plots were generated for coelenterazine-h in the presence and absence of ATT to calculate the half-life of coelenterazine-h at various temperatures. The Arrhenius equation is as follows: […]
In FIG. 9, the slope was −8131.2, the intercept was 22.6157, and R^2 was 0.9994.
In FIG. 10, the slope was −7310.53, the intercept was 21.4386, and R^2 was 0.9964.

[2] = Stability of furimazine at 37° C. in different organic solvents with or without ATT, luminescence with NANOLUC luciferase; type: physicochemical; details: 50% PG:50% ethanol, 60% PG:40% ethanol, 15% glycerol:85% ethanol, 250 or 300 mM ATT vs no ATT
Method: To further examine the stabilization of furimazine at 37° C., luminescence was measured after furimazine was incubated in the presence of different organic solvents, namely 50% (v/v) propylene glycol (PG):50% (v/v) ethanol, 60% (v/v) propylene glycol (PG):40% (v/v) ethanol, and 15% (v/v) glycerol:85% (v/v) ethanol.
1.25 mM stocks of furimazine were prepared in the following solutions: a) 50% propylene glycol:50% ethanol, 1.25 mM furimazine, 250 mM ATT; b) 60% propylene glycol:40% ethanol, 1.25 mM furimazine, 300 mM ATT; c) 15% glycerol:85% ethanol, 1.25 mM furimazine, 250 mM ATT; and inventory furimazine (Promega Corporation). Furimazine was first dissolved and then ATT was added. To make 4 mL of each sample, 2 mg furimazine and 143 mg of ATT (250 mM ATT) was added. For 300 mM ATT, 171 mg of ATT was added.
A portion of these samples was aliquoted into amber Starstead tubes with O-rings and then placed at 37° C. […] The remaining sample was placed at −20° C. in a 15 mL tube and monitored for precipitate formation.
Prior to assaying the samples, they were heated to room temperature (RT) and vortexed to ensure that any material that fell out of solution was re-suspended. […] The resulting dilutions were incubated for 3 minutes at RT, and luminescence was detected on a luminometer (GLOMAX Multi plus luminometer, Promega Corporation). […]

SMILES | stabilization of coelenterazine-h against decomposition [1] | stability of furimazine (normalized RLUs over time) [2]
Cc1n[nH]c(=S)[nH]c1=O [ATT, 6-methyl-3-thioxo-3,4-dihydro-1,2,4-triazin-5(2H)-one] | stabilized coelenterazine-h against decomposition over time at different temperatures | 
O=c1c(Cc2ccco2)nc2c(Cc3ccccc3)[nH]c(-c3ccccc3)cn1-2 [Furimazine, furimazine] |  | more stable in the presence of ATT than in the absence of ATT for each organic solvent
